Results published in patent US9624167B2, “N-(4-hydroxy-4-methyl-cyclohexyl)-4-phenyl-benzenesulfonamides and N-(4-hydroxy-4-methyl-cyclohexyl)-4-(2-pyridyl)benzenesulfonamides and their therapeutic use” (PIMCO 2664 LIMITED, priority 2013, dated 2017).

What was measured:
[1] = system: J774 macrophages; assay: Resazurin Macrophage J774 Viability Assay; assay type: cell-based; settings: Mus musculus, 6 point concentration range 10 μM to 10 nM, n = 3 replicates, mean of 2 independent experiments, 72 hour incubation, read-out: IC50 (1)
Procedure: Potency was assessed using a viability assay based on the survival of the J774 macrophage cell line. Macrophages are closely related to osteoclasts and have been used previously as a model system for osteoclast survival (see, e.g., Luckman et al., 1998, “Heterocycle-containing bisphosphonates cause apoptosis and inhibit bone resorption by preventing protein prenylation: evidence from structure-activity relationships in J774 macrophages,” J. Bone Miner. Res., Vol. 13, pp. 1668-1678). The model is indicative both of effects on bone protection in diseases such as osteoporosis, osteoarthritis and rheumatoid arthritis, and of effects on inflammation since, like osteoclasts, J774 macrophages are dependent for survival on continued NFκB activation.
In vitro potency of test compounds was determined by incubation with J774 macrophages and subsequent determination of cell viability using resazurin.
Resazurin is a redox dye commonly used as an indicator of viability in cultured cells (see, e.g., Anoopkumar-Dukie, 2005, British Journal of Radiology, Vol. 78, pp. 945-947). It is non-toxic to cells and stable in culture medium, allowing continuous measurement of cell proliferation in vitro as either a kinetic or endpoint assay. The assay is based on the ability of viable, metabolically-active cells to reduce resazurin (which is blue and non-fluorescent) to resorufin and dihydroresorufin (which are red and fluorescent) using electrons from reducing species, such as nicotinamide adenine dinucleotide (NADPH) and flavin adenine dinucleotide (FADH). This transformation, from oxidised form to reduced form, can be measured either colorimetrically or fluorometrically. Insults that impair cell viability and proliferation also affects the capacity of cells to reduce resazurin, and the rate of dye reduction is directly proportional to the number of viable cells present.
For fluorescence measurements, 530-560 nm excitation and 590 nm emission wavelengths are typically used. For colorimetric measurements, absorbance at 570 nm (reduced form) and 600 nm (oxidised form) is typically measured. A simple calculation is performed to determine the relative quantities of the two species: a high ratio of resorufin (the reduced form) to resazurin (the oxidised form) is an indicator that cells are proliferating and viable. A low ratio indicates cells that are quiescent or non-viable.
J774 cells were plated at 10^4 cells per well in 100 μL αMEM (α Modified Eagle Medium) in 96-well plates and allowed to adhere overnight. The following day, test compounds were prepared as 100 mM solutions in DMSO. These stock solutions were diluted in DMSO and then diluted 1000× in culture medium (αMEM) before being added directly to the wells so as to give the desired final compound concentration. After a 72 hour incubation at 37° C./5% CO2, resazurin (Alamar Blue, Biosource International) was added to each well (1:10 v/v, 10 μL). The plate was then incubated at 37° C. for 3 hours and fluorescence was measured at 590 nm, with a 25 nm bandwidth.
The average results for each test compound were expressed as a percent (%) of the average control value reflecting cell viability. The average values across the concentrations tested were then plotted and the IC50 for was calculated by fitting the data to a 4-parameter IC50 equation using software from Grafit (Erithacus Software). Each experiment was repeated twice and the data are presented as the mean IC50 from both experiments.

[2] = system: TK6 human lymphoblastoid cell line; assay: GreenScreen HC cytotoxicity (propidium iodide uptake); assay type: cell-based
Procedure: GreenScreen HC is a mammalian cell-based assay for measuring the genotoxicity and cytotoxicity of chemical compounds and mixtures.
Cytotoxicity is measured in the GreenScreen assay alongside genotoxicity and the results of the cytotoxicity assessment are used to normalise the genotoxicity measurements as described above.
In the GreenScreen HC assay, cell viability is assessed using a propidium iodide uptake assay. Propidium iodide is an intercalating agent and a fluorescent molecule that can be used to stain cells. It is commonly used to quantitatively assess DNA content to evaluate cell viability or DNA content in cell cycle analysis and can be used to differentiate necrotic, apoptotic and normal cells (see, e.g., Dengler et al., 1995, Anticancer Drugs, Vol. 6, No. 4, pp. 522-532). Exposure to a cytotoxic compound increases the uptake of propidium iodide, which is monitored by optical absorbance and is proportional to […]. Cytotoxic compounds are those that show an observed decrease in relative population survival below a significance threshold set at 90% compared to vehicle-treated control, at one or more test concentrations.
A dilution series of each test compound is generated in parallel in a 96-well, black microplate with an optically clear base. A standard genotoxic compound (methyl methanesulfonate, MMS) is added as an intra-plate quality control check. The plates are analysed at 24 hour and 48 hour time points using a microplate reader, which provides measurements of light absorbance and fluorescence for cells and solutions in the microplates wells.
In addition to measurements of cell viability and genotoxicity described above, the GreenScreen assay incorporates an assessment of the effects of metabolic activation in the assay, the “GreenScreen HC S9 assay”. To accomplish this, the cells are incubated both in the presence of and absence of the post-mitochondrial supernatant liver extract (known as “S9”). S9 is routinely used in genetic toxicology to supplement the test cells with mammalian phase I metabolism. To assess metabolic activation, compounds are incubated with the TK6 strain in the presence of 1% v/v S9 fraction mix for 3 hours with a subsequent 45 hour recovery time. After the recovery period, the GFP fluorescence signal and cell viability (assessed by propidium iodide uptake) are measured using a flow cytometer. Cyclophosphamide, a commonly used control in genotoxicity studies utilising metabolic activation, is used as the positive control in the assay. In the GreenScreen HC S9 assay, genotoxicity is evaluated by induction in GFP expression quantified using the mean sample fluorescence and cytotoxicity using the propidium iodide uptake assay described above. The statistically defined threshold for a positive genotoxicity result is 1.3, i.e. 30% induction over and above the baseline for the vehicle-treated control and the result is reported as positive or negative. Cytotoxic compounds are those that show an observed decrease in relative population survival below a significance threshold set at 90% compared to vehicle-treated control, at one or more test concentrations.
Stably transfected reporter cell lines were derived from the p53-competent human lymphoblastoid TK6 cell line. The reporter cell line carries an episomally replicating plasmid bearing the upstream promoter region and other regulatory sequences of the human GADD45a gene linked to a human optimised Green Fluorescent Protein (GFP) gene. The control cell line carries an identical plasmid except for the removal of 4 base pairs at the start of the EGFP gene, such that GFP is not produced. Both plasmids also carry a gene conferring resistance to hygromycin B to the cell line, allowing continued selection for plasmid presence (200 μg/mL hygromycin B; Invitrogen Corporation, Carlsbad, Calif.). […]

**Q.** Which results are given for `C[C@]1(O)CC[C@H](NS(=O)(=O)c2ccc(-c3ncc(Cl)cc3Cl)c(F)c2)CC1` [HMC-N-04-A, 4-(3,5-Dichloropyridin-2-yl)-3-fluoro-N-((1r,4r)-4-hydroxy-4-methylcyclohexyl)benzenesulfonamide]?
**A.** IC50 [1]: 0.18 µM; Cytotoxicity, LEC, 48 h, −S9 ([2]; 48 h, absence of S9 fraction): 0.12 µM; Cytotoxicity, LEC, 48 h, +S9 ([2]; 48 h, presence of S9 fraction): 30 µM; Cytotoxicity, LEC, 24 h ([2]; lowest effective concentration for loss of cell viability, 24 h): 0.47 µM
